Assay results taken from patent US11000033B2, “Ketone or oxime compound, and herbicide” (NISSAN CHEMICAL CORPORATION, priority 2014, dated 2021).

Legend:
Assay type in all cases: in vivo
Abutilon theophrasti = experiment: Test Example 4: herbicidal effect by soil treatment (symbol M); details: application herbicide amount 320 g/ha
How it was run: (§1)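 Seeds were sown in sterilized diluvial soil, covered with about 1.5 cm of soil, and the soil surface was sprayed with a water-diluted emulsion of the compound at a predetermined rate. Plants grew in a greenhouse at 25° C. to 30° C.; effects were scored visually 3 weeks after application.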

Setaria viridis = experiment: Test Example 4: herbicidal effect by soil treatment (symbol G); details: application herbicide amount 320 g/ha
How it was run: as §1

Alopecurus myosuroides = experiment: Test Example 5: herbicidal effect by foliage application, plastic box (symbol J); details: 320 g/ha, 3 weeks after application
How it was run: (§2)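 Greenhouse foliar test: seedlings at 14 days, grown 25° C. to 30° C. in sterilized diluvial soil; compound applied as an aqueous dilution of an emulsion; response read 3 weeks after spraying.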

rice = experiment: Test Example 4: effect on crop by soil treatment (symbol b); details: application herbicide amount 320 g/ha
How it was run: (§3)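 Plants are raised in a greenhouse (25° C. to 30° C.) from spot-sown seed, which sits under about 1.5 cm of sterilized diluvial soil in a box shared with weed species.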

Stellaria media = experiment: Test Example 4: herbicidal effect by soil treatment (symbol P); details: application herbicide amount 320 g/ha
How it was run: as §1

Digitaria ciliaris = experiment: Test Example 5: herbicidal effect by foliage application, plastic box (symbol F); details: 320 g/ha, 3 weeks after application
How it was run: as §2

wheat [1] = experiment: Test Example 5: effect on crop by foliage application, plastic box (symbol e); details: 320 g/ha, 3 weeks after application
How it was run: (§4)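 Crop seed is sown alongside grass and broadleaf weed species in spots in sterilized diluvial soil, then covered to a depth of about 1.5 cm. Plants grow in a greenhouse kept at 25° C. to 30° C.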

[2] = test system: directly sowed rice plant; experiment: Test Example 3: effect on crop by foliage application, Wagner pot (symbol b); details: application herbicide amount 320 g/ha
How it was run: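 Alluvial soil in a 1/10000-are Wagner pot was flooded to a water depth of 0.1–0.5 cm. Echinochloa crus-galli var. crus-galli, Leptochloa chinensis, Cyperus difformis and rice were sown into it and grown in a greenhouse at 25–30 °C.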

Amaranthus retroflexus = experiment: Test Example 4: herbicidal effect by soil treatment (symbol N); details: application herbicide amount 320 g/ha
How it was run: as §1

Apera spica-venti = experiment: Test Example 4: herbicidal effect by soil treatment (symbol L); details: application herbicide amount 320 g/ha
How it was run: as §1

Cyperus difformis = experiment: Test Example 3: herbicidal effect by foliage application, Wagner pot (symbol E); details: application herbicide amount 320 g/ha
How it was run: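 Alluvial soil was flooded to a depth of 0.1–0.5 cm, seeded with the weeds and rice, and kept in a greenhouse at 25–30 °C. After 14 days of growth, the foliage received a small-sprayer application of emulsion diluted to the intended rate; injury was rated at 3 weeks.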

Avena fatua = experiment: Test Example 5: herbicidal effect by foliage application, plastic box (symbol I); details: 320 g/ha, 3 weeks after application
How it was run: as §2

beet = experiment: Test Example 5: effect on crop by foliage application, plastic box (symbol f); details: 320 g/ha, 3 weeks after application
How it was run: as §4

Monochoria vaginalis = experiment: Test Example 2: herbicidal activity, application during weed generation in submerged conditions (symbol C); details: Table 23; application herbicide amount 320 g/ha; grade 0-5 by criteria of Test Example 1
How it was run: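 Weeds emerging under flooded conditions were treated with compound formulated as an emulsion and diluted with water to the intended herbicide amount, poured onto the surface of 4 cm standing water. Seeds had been co-sown in alluvial soil; plants grew at 25° C. to 30° C. and were assessed after 3 weeks.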

wheat [3] = experiment: Test Example 4: effect on crop by soil treatment (symbol e); details: application herbicide amount 320 g/ha
How it was run: as §3

soybean = experiment: Test Example 5: effect on crop by foliage application, plastic box (symbol d); details: 320 g/ha, 3 weeks after application
How it was run: as §4

| SMILES | M (Abutilon theophrasti) herbicidal effect grade (Abutilon theophrasti) | G (Setaria viridis) herbicidal effect grade (Setaria viridis) | J: Alopecurus myosuroides, herbicidal effect grade (Alopecurus myosuroides) | b (directly sowed rice plant) effect on crop grade (rice) | P (Stellaria media) herbicidal effect grade (Stellaria media) | F: Digitaria ciliaris, herbicidal effect grade (Digitaria ciliaris) | e: wheat, effect on crop grade (wheat [1]) | effect on crop b (directly sowed rice plant), grade 0-5 [2] | N (Amaranthus retroflexus) herbicidal effect grade (Amaranthus retroflexus) | L (Apera spica-venti) herbicidal effect grade (Apera spica-venti) | herbicidal effect on E, grade 0-5 (Cyperus difformis) | I: Avena fatua, herbicidal effect grade (Avena fatua) | f: beet, effect on crop grade (beet) | Herbicidal effect grade, C: Monochoria vaginalis (Monochoria vaginalis) | e (wheat) effect on crop grade (wheat [3]) | d: soybean, effect on crop grade (soybean) |
| --- | --- | --- | --- | --- | --- | --- | --- | --- | --- | --- | --- | --- | --- | --- | --- | --- |
| CON=C(C)CC1CC(OC(=O)C(C)(C)Oc2ccc(Cl)cc2)=C(c2c(C)cc(C)cc2C)C1=O (centres unmarked) [1-051] | 5 (Herbicidal ratio of 90% or more (almost completely withered)) | 5 (Herbicidal ratio of 90% or more (almost completely withered)) | 5 (Herbicidal ratio of 90% or more (almost completely withered)) | 5 (Herbicidal ratio of 90% or more (almost completely withered)) | 0 (Herbicidal ratio of 5% or lower (almost no effect)) | 5 (Herbicidal ratio of 90% or more (almost completely withered)) | 5 (Herbicidal ratio of 90% or more (almost completely withered)) | 5 (Herbicidal ratio of 90% or more (almost completely withered)) | 4 (Herbicidal ratio of 70% or higher and lower than 90%) | 5 (Herbicidal ratio of 90% or more (almost completely withered)) | 5 (Herbicidal ratio of 90% or more (almost completely withered)) | 5 (Herbicidal ratio of 90% or more (almost completely withered)) | 0 (Herbicidal ratio of 5% or lower (almost no effect)) | 3 (Herbicidal ratio of 40% or higher and lower than 70%) | 2 (Herbicidal ratio of 20% or higher and lower than 40%) | 4 (Herbicidal ratio of 70% or higher and lower than 90%) |
| CON=C(C)CC1CC(OC(=O)C(C)(C)Oc2cccc(Cl)c2)=C(c2c(C)cc(C)cc2C)C1=O (centres unmarked) [1-065] | 4 (Herbicidal ratio of 70% or higher and lower than 90%) | 5 (Herbicidal ratio of 90% or more (almost completely withered)) | 5 (Herbicidal ratio of 90% or more (almost completely withered)) | 5 (Herbicidal ratio of 90% or more (almost completely withered)) | 0 (Herbicidal ratio of 5% or lower (almost no effect)) | 5 (Herbicidal ratio of 90% or more (almost completely withered)) | 5 (Herbicidal ratio of 90% or more (almost completely withered)) | 5 (Herbicidal ratio of 90% or more (almost completely withered)) | 5 (Herbicidal ratio of 90% or more (almost completely withered)) | 5 (Herbicidal ratio of 90% or more (almost completely withered)) | 5 (Herbicidal ratio of 90% or more (almost completely withered)) | 5 (Herbicidal ratio of 90% or more (almost completely withered)) | 0 (Herbicidal ratio of 5% or lower (almost no effect)) | 0 (Herbicidal ratio of 5% or lower (almost no effect)) | 4 (Herbicidal ratio of 70% or higher and lower than 90%) | 4 (Herbicidal ratio of 70% or higher and lower than 90%) |
| CON=C(C)CC1CC(OC(=O)C(C)(C)Oc2ccccc2Cl)=C(c2c(C)cc(C)cc2C)C1=O (centres unmarked) [1-064] | 3 (Herbicidal ratio of 40% or higher and lower than 70%) | 5 (Herbicidal ratio of 90% or more (almost completely withered)) | 5 (Herbicidal ratio of 90% or more (almost completely withered)) | 5 (Herbicidal ratio of 90% or more (almost completely withered)) | 0 (Herbicidal ratio of 5% or lower (almost no effect)) | 5 (Herbicidal ratio of 90% or more (almost completely withered)) | 5 (Herbicidal ratio of 90% or more (almost completely withered)) | 5 (Herbicidal ratio of 90% or more (almost completely withered)) | 4 (Herbicidal ratio of 70% or higher and lower than 90%) | 5 (Herbicidal ratio of 90% or more (almost completely withered)) | 5 (Herbicidal ratio of 90% or more (almost completely withered)) | 5 (Herbicidal ratio of 90% or more (almost completely withered)) | 1 (Herbicidal ratio of 5% or higher and lower than 20%) | 1 (Herbicidal ratio of 5% or higher and lower than 20%) | 3 (Herbicidal ratio of 40% or higher and lower than 70%) | 4 (Herbicidal ratio of 70% or higher and lower than 90%) |
| CON=C(CC1CC(O)=C(c2c(C)cc(C)cc2C)C1=O)c1ccccn1 (centres unmarked) [1-045] | 0 (Herbicidal ratio of 5% or lower (almost no effect)) | 0 (Herbicidal ratio of 5% or lower (almost no effect)) | 5 (Herbicidal ratio of 90% or more (almost completely withered)) | 0 (Herbicidal ratio of 5% or lower (almost no effect)) | 0 (Herbicidal ratio of 5% or lower (almost no effect)) | 4 (Herbicidal ratio of 70% or higher and lower than 90%) | 0 (Herbicidal ratio of 5% or lower (almost no effect)) | 3 (Herbicidal ratio of 40% or higher and lower than 70%) | 0 (Herbicidal ratio of 5% or lower (almost no effect)) | 0 (Herbicidal ratio of 5% or lower (almost no effect)) | 0 (Herbicidal ratio of 5% or lower (almost no effect)) | 5 (Herbicidal ratio of 90% or more (almost completely withered)) | 0 (Herbicidal ratio of 5% or lower (almost no effect)) | 0 (Herbicidal ratio of 5% or lower (almost no effect)) | 0 (Herbicidal ratio of 5% or lower (almost no effect)) | 1 (Herbicidal ratio of 5% or higher and lower than 20%) |
| CON=C(C)CC1CC(OC(=O)COc2ccccc2OC)=C(c2c(C)cc(C)cc2C)C1=O (centres unmarked) [1-067] | 5 (Herbicidal ratio of 90% or more (almost completely withered)) | 5 (Herbicidal ratio of 90% or more (almost completely withered)) | 5 (Herbicidal ratio of 90% or more (almost completely withered)) | 5 (Herbicidal ratio of 90% or more (almost completely withered)) | 0 (Herbicidal ratio of 5% or lower (almost no effect)) | 5 (Herbicidal ratio of 90% or more (almost completely withered)) | 5 (Herbicidal ratio of 90% or more (almost completely withered)) | 5 (Herbicidal ratio of 90% or more (almost completely withered)) | 5 (Herbicidal ratio of 90% or more (almost completely withered)) | 5 (Herbicidal ratio of 90% or more (almost completely withered)) | 5 (Herbicidal ratio of 90% or more (almost completely withered)) | 5 (Herbicidal ratio of 90% or more (almost completely withered)) | 1 (Herbicidal ratio of 5% or higher and lower than 20%) | 2 (Herbicidal ratio of 20% or higher and lower than 40%) | 5 (Herbicidal ratio of 90% or more (almost completely withered)) | 4 (Herbicidal ratio of 70% or higher and lower than 90%) |
